Assay results as given in patent US7939639B2, “Functional role of adrenomedullin (AM) and the gene related product (PAMP) in human pathology and physiology” (The United States of America as represented by the …, priority 1995, dated 2011).
“Also recorded” adds a separate entry of the source. Like-named read-outs stand apart in the source and are kept apart here. Ends that are not written are not given here.

Legend:
AM receptors = assay: 125I-AM receptor binding, MCF-7; set-up: species or system human; conditions: MCF-7 as representative cancer line
Method: j. Receptor Binding: Receptor binding analysis were performed as previously described (Moody, T. W., et al., Proc. Natl. Acad. Sci. U.S.A. 90:4345-4349 (1993)). Briefly, cells (5×10^4) were placed in 24-well plates coated with fibronectin (20 μg). When a monolayer is formed, the cells were washed 4 times in TIS buffer followed by incubation with receptor binding medium (TIS plus 1% BSA and 1 mg/ml bacitracin). […] After washing the cells 4 times in receptor binding buffer at 4° C., they were dissolved in 0.2 N NaOH and counted on a gamma counter.

AM receptor = assay: cAMP assay (RIA), MCF-7; type: cell-based, human; conditions: MCF-7
Method: k. cAMP Assays: Cyclic AMP was assayed by RIA using a kit obtained from New England Nuclear (Boston, Mass.). […] The supernatants were tested for cAMP using the RIA kit following the manufacturer's instructions.

E. coli [1] = assay: Microdilutional timed kill assay, E. coli; type: cell-based, Escherichia coli; conditions: for growth inhibitory activity against E. coli, comparative: microdilution, 6 hours, FIG. 22
Method: (§1) Inhibition of growth of E. coli was assessed in a microdilutional timed kill assay. (See FIG. 22) Bacteria and Candida albicans were grown overnight on trypticase soy agar (TSA) and Sobouraud dextrose agar (SDA) plates, respectively, were suspended into RPMI-1640 medium (Bio-Whittaker) and adjusted to a final concentration of 8×10^3 cfu/ml in […] in plastic microdilution trays. AM-related peptides, magainins, and albumin were added in equimolar concentrations ranging from 8 μM to 300 μM. Plates were incubated at 37° C. with gentle agitation over 24 hours. At 6 hr and 24 hr time points, 10 to […] aliquots from each well were quantitatively cultured by serial 100-fold dilutions onto TSA and SDA plates.

P. aeruginosa = assay: Micro-/macrodilution timed kill assay, P. aeruginosa; type: cell-based, Pseudomonas aeruginosa; conditions: 24 hours exposure compared with 6 hours incubation
Method: as §1, with “AM-related peptides, magainins, and albumin were added in equimolar concentrations ranging from 8 μM to 300 μM.” left out
(§2) Data were compiled from six experiments. Macrodilution assays were performed in 12×75 mm borosilicate glass tubes. Organisms were grown and harvested, as described in Roilides, E., et al., J Infect Dis. 163:579 (1991), and adjusted to a final inoculum concentration of 8×10^3 cfu/ml in 400 μl. […] Tubes were incubated at 37° C. with gentle agitation over 24 hours. At 6 and 24 hour time points, 100 μl aliquots from each tube were quantitatively cultured by serial 100-fold dilutions onto TSA and SDA plates.

C. albicans = assay: Micro-/macrodilutional assay, C. albicans; type: cell-based, Candida albicans
Method: as §1, with “AM-related peptides, magainins, and albumin were added in equimolar concentrations ranging from 8 μM to 300 μM.” left out
as §2

S. aureus = assay: Micro-/macrodilutional assays, S. aureus; type: cell-based, Staphylococcus aureus; conditions: microdilutional or macrodilutional assays
Method: as §1, with “AM-related peptides, magainins, and albumin were added in equimolar concentrations ranging from 8 μM to 300 μM.” left out
as §2

E. coli [2] = assay: Macrodilution assay, E. coli; type: cell-based, Escherichia coli; conditions: for antimicrobial activity, macrodilution, 6 hours: 6 hours incubation
Method: as §2

Isoelectric point = type: physicochemical
rat mast cells = conditions: compared with magainin-2 / AM
[3] = test system: E. coli, P. aeruginosa, C. albicans, S. aureus; assay: Antimicrobial dilution assays against bacterial and fungal pathogens; type: cell-based; conditions: microdilutional assay
Method: In order to assess the antimicrobial activity of AM and its gene related peptides, both microdilution and macrodilution assays were performed against Escherichia coli (E. coli), Staphylococcus aureus (S. aureus), Pseudomonas aeruginosa (P. aeruginosa) and Candida albicans (C. albicans). A germination assay was also performed in order to further assess anti-candidal activity (Ghannoum, M. A. and Radwan, S. S., Candida Adherence to Epithelial Cells. CRC Press; Boca Raton, Fla. 1990 pp. 72-104).
as §1
The antimicrobial activity of AM and PAMP was determined in a macrodilution assay after 6 hours of incubation of E. coli. […] Data were compiled from six experiments. Macrodilution assays were performed in 12×75 mm borosilicate glass tubes. Organisms were grown and harvested, as described in Roilides, E., et al., J Infect Dis. 163:579 (1991), and adjusted to a final inoculum concentration of 8×10^3 cfu/ml in 400 μl. AM-related peptides, magainins, and albumin were added in equimolar concentrations ranging from 8 μM to 300 μM. Tubes were incubated at 37° C. with gentle agitation over 24 hours. At 6 and 24 hour time points, 100 μl aliquots from each tube were quantitatively cultured by serial 100-fold dilutions onto TSA and SDA plates.

RINm cells = assay: 125I-AM binding to RINm cells; conditions: 0.2 nM per 5×10^5 cells
Description: (§3) A similar mechanism has been described for amylin (R. A. Pittner et al., J. Cell. Biochem. 55S, 19 (1994)).

NCI-H1264 = assay: 125I-AM binding to NCI-H1264 cells; set-up: species or system human; conditions: 0.2 nM per 5×10^5 cells; NCI-H1264 positive control
Description: as §3

ARLDVASEFRKKWNKWALSR-NH2 [PAMP-20, ARLDVASEFRKKWNKWALSR-NH2]
competition for 125I-AM binding (AM receptors): not competitively blocked | effect on cAMP (AM receptor): no effect | activity against E. coli (E. coli [1]; after 6 hours of incubation): activity | growth inhibitory activity against E. coli, comparative (E. coli [1]): higher growth inhibitory activity than albumin | antimicrobial activity against P. aeruginosa, 24 hours versus 6 hours (P. aeruginosa): greater antimicrobial activity | antimicrobial effect against C. albicans (C. albicans): 79.7%±2.4 | activity against C. albicans (C. albicans; after 6 hours of incubation): activity | growth suppressive activity against S. aureus (S. aureus): ineffective; also recorded: no apparent growth suppressive activity | antimicrobial activity, macrodilution, 6 hours (E. coli [2]; E. coli): greater activity | isoelectric point (Isoelectric point): 10.1 | isoelectric point (Isoelectric point; listed as PAMP): 11.1 | relative potency in inducing histamine release (rat mast cells): twenty times more potent

Magainin [reference compound]
growth inhibitory activity against E. coli, comparative (E. coli [1]): greater inhibitory activity | potency against C. albicans, comparative (C. albicans): more potent than AM and PAMP | antimicrobial activity, macrodilution, 6 hours (E. coli [2]; E. coli): moderate activity | antimicrobial activity, macrodilution, 24 hours (E. coli [2]; E. coli, 24 hours incubation): significantly greater in antimicrobial activity than either AM or PAMP; also recorded: more potent than either AM | optical clarity of bacterial suspension (E. coli [2]; macrodilution): optically clear suspension of bacteria

TVQKLAHQIYQFTDKDKDNVAPRSKISPQGY-NH2 [PO72]
competition for 125I-AM binding (AM receptors): not competitively blocked | effect on cAMP (AM receptor): no effect | activity against these pathogens [3]: little or no activity

Y-G-G-H-Q-I-Y-Q-F-T-D-K-D-NH2 (YGGHQIYQFTDKD-NH2) [PO71, ID; NO]
activity against these pathogens [3]: little or no activity

Y-Y-W-N-K-W-A-L-S-R-NH2 (YYWNKWALSR-NH2) [PO70, ID; NO]
activity against these pathogens [3]: little or no activity

^125I-AM: iodinated AM ligand (Phoenix Pharmaceuticals)
binding of 125I-AM (RINm cells): 25 cpm | binding of 125I-AM (NCI-H1264): 2265 cpm
